Experimental data as given in patent publication US20240400572A1, “COMPOUNDS AND METHODS FOR TREATING CANCERS THAT ARE MGMT DEFICIENT REGARDLESS OF MMR STATUS” (Yale University, priority 2021, published 2024).

Assays:
[1] = tested on: LN229 MGMT+/−, MMR+/− cells; assay: Clonogenic cell survival assay; details: cell status given in the value
Method: Cells were trypsinized, washed, counted, and diluted in a medium containing various concentrations of drug. They were then immediately seeded in six-well plates in triplicate at three-fold dilutions, ranging from 9000 to 37 cells per well. Depending on colony size, these plates were kept in the incubator for 10 to 14 days. After incubation, colonies were washed in phosphate-buffered saline (PBS), stained with crystal violet, counted, and quantified.

[2] = tested on: LN229 MGMT−/MMR+ and MGMT−/MMR− cells; assay: IR alkaline comet assay; type: cell-based, human
Method: IR Alkaline Comet Assay. Assay was performed utilizing the CometAssay Kit (Trevigen) according to the alkaline assay protocol, with the addition of slide irradiation post-lysis. Cells were trypsinized, washed with 1×PBS, added to melted Comet LMAgarose (Trevigen), and spread on Trevigen CometSlides at a density of 1000 cells per sample in 50 μL. Lysis solution (Trevigen) with 10% DMSO was added overnight at 4° C. Slides were removed from lysis buffer and irradiated to 0 or 10 Gy using an XRAD 320 X-Ray System (Precision X-Ray) at 320 kV, 12.5 mA, and 50.0 cm SSD, with a 2 mm Al filter and 20 cm×20 cm collimator. Slides were then placed in alkaline buffer (200 mM NaOH, 1 mM EDTA) for 45 min, followed by electrophoresis in 850 mL alkaline buffer for 45 min at 4° C. Slides were washed and stained with SYBR gold (Invitrogen) per Trevigen assay protocol. Slides were imaged on a Cytation 3 imaging reader (BioTek), and comets were analyzed using CometScore 2.0 software (TriTek).
We used a well-established comet assay adapted for ICL detection to determine if ICLs were formed in MGMT− cells treated with KL-50 (4a) (FIG. Z3, A and B). In this assay, cells were sequentially exposed to genotoxins and ionizing radiation, and then analyzed by single cell alkaline gel electrophoresis. Attenuation of the IR-induced comet tail is indicative of ICL formation.

[3] = tested on: four isogenic LN229 glioblastoma cell lines (MGMT+/−, MMR+/−); type: cell-based; details: LN229 MGMT+ versus MGMT− cells; listed as 12a
Method: (§1) Short-term Cell Viability Assay. Cells were seeded in 96-well plates at 1000 or 2000 cells/well and allowed to adhere at 23° C. for 60 min and then incubated overnight at 37° C. Cells were treated with indicated concentrations of compounds in triplicate for 4-6 days prior to fixation with 3.7% paraformaldehyde and nuclear staining with 1 μg/mL Hoechst 33342 dye. Cells were imaged on a Cytation 3 imaging reader (BioTek) and quantified using CellProfiler software.
Statistical analysis. Statistical analysis was performed using GraphPad Prism software. Data are presented as mean or median±SD or SEM as indicated. For in vitro short-term growth delay experiments, IC50 values were determined from the nonlinear regression equation, [inhibitor] vs normalized response with variable slope. For micronuclei assays, comparisons were made with one-way ANOVA and Sidak correction for multiple comparisons. For xenograft growth delay experiments, comparisons were made with Mann-Whitney test (for comparison of 2 groups) or Kruskal-Wallis test with FDR-adjusted p-values with Q set to 5% (for comparison of ≥3 groups). For xenograft survival analysis, Kaplan-Meier analysis was used to evaluate survival rate based on death or removal from study when body weight loss exceeded 20% of initial body weight
We synthesized the imidazotetrazine 4a (KL-50) and the triazene 4b (KL-85), as vehicles to deliver 2-fluoroethyl diazonium (4c), and a series of related agents to probe structure-activity relationships in tissue culture (FIG. Z1, D and F). The 2-fluoropropyl- and 3-fluoropropyl-triazenes (10 and 11, respectively) were prepared by diazotization of 4-aminoimdazole-5-carboxamide, followed by the addition of the respective amine. All other triazenes were prepared according to literature procedures. We evaluated the cytotoxicity of our compounds in short-term cell viability assays against four isogenic LN229 glioblastoma cell lines engineered to be proficient or deficient in MGMT and/or MMR activity, using short hairpin RNAs (shRNAs) targeting MSH2 (referred to as MGMT+/−, MMR+/− cells hereafter; FIG. ZS2A). This approach allowed us to rapidly and rigorously interrogate the relationship between MGMT and MMR status and compound activity.
The compounds 10a through 10l and TMZ were tested in the short-term cell viability assay.

[4] = tested on: DLD1 BRCA2+/− and BRCA2−/− cells; assay: Short-term cell viability assay in DLD1 isogenic model; type: cell-based, human; details: for sensitivity of BRCA2-deficient cells (in words): DLD1 BRCA2−/− versus BRCA2+/−, ± 10 μM O^6BG; for therapeutic index (TI): ratio of IC50 values in MGMT+/BRCA2+ cells compared to MGMT−/BRCA2− cells
Method: (§2) FIGS. Z4A-Z4I. KL-50 (4a) activates DNA damage response pathways and cycle arrest in MGMT− cells, independent of MMR, and induces sensitivity in cells deficient in ICL or HR repair. (FIGS. Z4A, Z4B, and Z4C) Phospho-SER139-H2AX (γH2AX) (A), 53BP1 (FIG. Z4B), and phospo-SER33-RPA2 (pRPA) (FIG. Z4C) foci formation quantified by % cells with 10 foci in LN229 MGMT+/−, MMR+/− cells treated with 0.1% DMSO control, 20 μM KL-50 (4a), or 20 μM TMZ (1a) for 48 h. Columns, mean; error bars, SD; n≥5 technical replicates. Additional time course data is presented in FIG. ZS6B to D. (FIG. Z4D) Representative foci images of data in (FIG. Z4A) to (FIG. Z4C). (FIG. Z4E) Percentage of cells in G1, S, and G2 cell cycle phases after treatment as in (A) to (C), measured using integrated nuclear (Hoechst) staining intensity. Columns, mean; error bars, SD; n=3 independent analyses. (FIG. Z4F) Change in percent cells with 1 micronuclei from baseline (DMSO control) after treatment as in (FIG. Z4A) to (FIG. Z4C). Columns, mean; error bars, SD; […] technical replicates; **** p<0.0001; ns, not significant. Additional validation is presented in FIG. ZS9, A and B. (FIG. Z4G) Short-term viability assay curves for KL-50 (4a) in PD20 cells, deficient in FANCD2 (FANCD2−/−) or complemented with FANCD2 (+FANCD2). (FIG. Z4H) Short-term viability assay curves for KL-50 (4a) in PEO4 (BRCA2+) and PEO1 (BRCA2−/−) cells pre-treated with 0.01% DMSO control or 10 μM O^6BG (+O^6BG) for 1 h prior to KL-50 (4a) addition. (FIG. Z4I) Short-term viability assay curves for KL-50 (4a) in DLD1 BRCA2+/− and BRCA2−/− cells pre-treated with 0.01% DMSO control or 10 μM O^6BG (+O^6BG) for 1 h prior to KL-50 (4a) addition. For (FIG. Z4G), (FIG. Z4H), and (FIG. Z4I), points, mean; error bars, SD; n=3 technical replicates.
as §1

[5] = tested on: PD20 cells, FANCD2−/− or +FANCD2; assay: Short-term cell viability assay in FANCD2 model; type: cell-based, human; details: PD20 FANCD2−/− versus +FANCD2
Method: as §2
Short-term Cell Viability Assay. Cells were seeded in 96-well plates at 1000 or 2000 cells/well and allowed to adhere at 23° C. for 60 min and then incubated overnight at 37° C. […] Cells were imaged on a Cytation 3 imaging reader (BioTek) and quantified using CellProfiler software.

[6] = tested on: PEO4 (BRCA2+) and PEO1 (BRCA2−/−) cells; assay: Short-term cell viability assay in PEO1/4 model; type: cell-based, human; details: for therapeutic index (TI): PEO1/4 model, ratio of IC50 values; for sensitivity of BRCA2-deficient cells (in words): PEO1 versus PEO4, ± 10 μM O^6BG
Method: as §2, §1

LN229 MGMT−/MMR− cells = assay: Short-term cell viability assay; type: cell-based, human
Method: as §1
Statistical analysis. Statistical analysis was performed using GraphPad Prism software. Data are presented as mean or median±SD or SEM as indicated. For in vitro short-term growth delay experiments, IC50 values were determined from the nonlinear regression equation, [inhibitor] vs normalized response with variable slope. […]
We synthesized the imidazotetrazine 4a (KL-50) and the triazene 4b (KL-85), as vehicles to deliver 2-fluoroethyl diazonium (4c), and a series of related agents to probe structure-activity relationships in tissue culture (FIG. Z1, D and F). […] We evaluated the cytotoxicity of our compounds in short-term cell viability assays against four isogenic LN229 glioblastoma cell lines engineered to be proficient or deficient in MGMT and/or MMR activity, using short hairpin RNAs (shRNAs) targeting MSH2 (referred to as MGMT+/−, MMR+/− cells hereafter; FIG. ZS2A). […]

[7] = tested on: genomic DNA of LN229 MGMT−/MMR+ cells; assay: Genomic DNA denaturing gel electrophoresis; type: cell-based, human; details: 200 μM, 24 h
Method: Genomic DNA Denaturing Gel Electrophoresis. Cells were trypsinized, washed with 1×PBS, and stored at −80° C. prior to processing. Genomic DNA was extracted with the DNeasy Blood & Tissue Kit (Qiagen) per kit protocol. A 0.7% agarose gel was prepared in 100 mM NaCl-2 mM EDTA (pH 8) and soaked in 40 mM NaOH-1 mM EDTA running buffer for 2 h. Genomic DNA (400 ng/well) was then loaded in 1× BlueJuice loading buffer (Invitrogen) and subjected to electrophoresis at 2 V/cm for 30 min, followed by 3 V/cm for 2 h. The gel was neutralized in 150 mM NaCl-100 mM Tris (pH 7.4) for 30 min, twice, and then stained with 1× SYBR Gold in 150 mM NaCl-100 mM Tris (pH 7.4) for 90 min. Imaging was performed on a ChemiDoc XRS+ Molecular Imager (Bio-Rad).

[8] = tested on: linearized pUC19 plasmid DNA; assay: Melting temperature assay; type: biochemical; details: 100 or 500 μM for 3 h
Method: Melting Temperature Assay. Linearized pUC19 DNA (750 ng), prepared as described above, was incubated with the indicated concentration of either MMS or KL-50 (4a) adjusted in a final volume of 18 μL in 100 mM Tris buffer (pH 7.4) for 3 h. Drug stock concentrations were made in DMSO such that each reaction contained a fixed 5% DMSO concentration. Afterwards, 1 μL each of 20× SYBR Green dye (Invitrogen) and 20× ROX reference dye (Invitrogen) was added and melting temperature analysis was run on a StepOnePlus RT PCR System (Applied Biosciences) to generate melting temperature curves.

O=NN(CCCl)C(=O)NC1CCCCC1 [lomustine]
clonogenic survival (in words) [1]: effective in MMR− cells but was cytotoxic to MGMT+ cells

NC(=O)c1ncn2c(=O)n(CCCl)nnc12 [MTZ, mitozolomide]
DNA damage in unirradiated samples (in words) ([2]; MGMT−/MMR− cells, 200 μM, 2, 8 or 24 h, 0 Gy): induced maximal damage at 2 h, which decreased over time | rate of ICL formation, DNA mobility after IR (in words) ([2]; MGMT−/MMR− cells, 200 μM, 2, 8 or 24 h, 10 Gy): reduced DNA mobility within 2 h | selectivity for MGMT-deficient cells [3]: ~7 fold

CO[C@@]12[C@H](COC(N)=O)C3=C(C(=O)C(C)=C(N)C3=O)N1C[C@@H]1N[C@@H]12 [MMC, mitomycin C]
sensitivity of BRCA2-deficient cells (in words) [4]: hypersensitivity of DLD1 BRCA2−/− cells to crosslinking agents independent of MGMT depletion | therapeutic index (TI) [4]: 26 fold | sensitivity of FANCD2-deficient cells (in words) [5]: hypersensitivity to crosslinking agents in FANCD2−/− cells | effect on IR-induced comet tail, ICL detection (in words) ([2]; MGMT−/MMR+ cells, 0.1 μM for 24 h, 10 Gy): partial reduction in the IR-induced comet tail | effect on IR-induced comet tail, ICL detection (in words) ([2]; MGMT−/MMR+ cells, 50 μM for 2 h, 10 Gy): completely abolished the IR-induced comet tail | comet tailing in the absence of IR (in words) ([2]; MGMT−/MMR+ cells, TMZ and KL-50 200 μM, MMC 0.1 or 50 μM): did not | therapeutic index (TI) [6]: 7 fold | sensitivity of BRCA2-deficient cells (in words) [6]: hypersensitivity of PEO4 BRCA2−/− cells to crosslinking agents independent of MGMT depletion

NC(=O)c1nc[nH]c1N=NNCCF [KL-85]
IC50 (LN229 MGMT−/MMR− cells): 27.5 µM | crosslinked genomic DNA (in words) [7]: presence of crosslinked DNA | effect on IR-induced comet tail, ICL detection (in words) ([2]; MGMT−/MMR+ cells, 200 μM for 24 h, 10 Gy): Comparable results

N.N.[Cl][Pt][Cl] [cisplatin]
sensitivity of BRCA2-deficient cells (in words) [4]: hypersensitivity of DLD1 BRCA2−/− cells to crosslinking agents independent of MGMT depletion | therapeutic index (TI) [4]: 42 fold | sensitivity of FANCD2-deficient cells (in words) [5]: hypersensitivity to crosslinking agents in FANCD2−/− cells | therapeutic index (TI) [6]: 13 fold | sensitivity of BRCA2-deficient cells (in words) [6]: hypersensitivity of PEO4 BRCA2−/− cells to crosslinking agents independent of MGMT depletion

COS(C)(=O)=O [MMS, Methylmethane sulfonate, reference compound]
change in DNA melting temperature (in words) [8]: comparable changes in measured DNA melting temperature
